Measurements as given in patent US11292788B2, “IL-17 and IFN-gamma inhibition for the treatment of autoimmune diseases and chronic inflammation” (Immunic AG, priority 2017, dated 2022).
Values after ≈ are worked out from the molar mass of the structure shown. Like-named read-outs stand apart in the source and are kept apart here.

How the values were obtained:
[1] = test system: IL-17A; assay: Cytokine assay: IL-17A production by human PBMC stimulated with PHA; format: cell-based; settings: IC50 class, read-out: IL-17A Inhib.
In short: (§1)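 Compounds were titrated semilogarithmically for IC50, or screened at 10, 1, 0.1 and 0.01 μM, on healthy-donor PBMC stimulated for 48 h with 2 μg/ml PHA at 1×10^5 cells/well. Cytokines in culture supernatants were then quantified by ELISA or Luminex bead assay.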

[2] = test system: IL-17F; assay: Cytokine assay: IL-17F production by human PBMC stimulated with PHA; format: cell-based; settings: IC50 class, read-out: IL-17F Inhib.
In short: as §1

[3] = test system: INF-γ; assay: Cytokine assay: INF-γ production by human PBMC stimulated with PHA; format: cell-based; settings: Homo sapiens, PBMC, IC50 class, read-out: IFN-gamma Inhib.
In short: as §1

[4] = Aqueous solubility in 50 mM phosphate buffer (HPLC/DAD); format: physicochemical; settings: 50 mM phosphate buffer, 23 °C, pH 7.4, aqueous buffer, kinetic from dmso stock, aqueous solubility class; read-out: aq. solub.
Protocol: To achieve this, the samples (final volume 500 μl, 200 μM compound concentration) were incubated for 24 hours at 23° C. under continuous shaking at 1400 rpm (Thermomixer, Eppendorf) in aqueous phosphate buffers (pH 4.0, 6.0, 7.4 and 9.0) with a final DMSO concentration of 1%. To separate the undissolved compound from the solution, the samples were centrifuged (30 min 18000 g at 23° C.). Supernatants were measured via HPLC equipped with a UV detector and concentrations were calculated according to signals of a standard curve. The standard curve was prepared by diluting a stock solution of each compound (c=0.1 mg/ml; received by adding 10 μl of 20 mM compound in DMSO to 914 μl MeCN) in a certain amount of MeCN to cover a range of 0.1 to 200 μg/ml.

[5] = Microsomal stability: incubation with human liver microsomes, residual parent compound by HPLC-MS/MS; format: in vitro ADME; settings: up to 60 min, read-out: t1/2 hLM
Protocol: Metabolic stability of compounds of the present invention was determined by incubation with human liver microsomes and subsequent determination of residual amount of the respective compound (“parent compound”) by HPLC-MS/MS.
In order to achieve this, in a final reaction volume of 1000 μl, each compound was incubated at a final concentration of 1 μM with 0.5 mg/ml human liver microsomes (HLM Pool 50 Donors, 20 mg/ml, BD Gentest, #452156, LotNr 88114) in 0.1 M Potassium phosphate buffer at pH 7.4, with a cofactor in form of a NADPH regenerating system (Promega, #V9510) according to the manufacturers' specifications. The final DMSO concentration in each sample was 0.4%. The incubation was performed at 37° C. under shaking conditions (Thermomixer, 1400 rpm) for different time intervals up to 60 min. To stop the reaction, for each time point 200 μl of the reaction were taken out and 200 μl ice-cold acetonitrile was added. Then, the samples were centrifuged (4° C., 14000*g for 15 min). The supernatant was analyzed for residual parent compound concentration and scanned for metabolites using HPLC-MS/MS. By using optimized MS methods for each compound, the peak area under curve for the compound specific signal is determined. The change of the peak areas over the assay time of 60 min resemble the remaining parent compound in % of T0. By these points, a balancing line was set. The half-time, as well as the clearance, can then be calculated on the basis of the slope.

[6] = human liver microsomes 0.5 mg/ml, compound 1 μM, pH 7.4, 37° C.
[7] = pH 7.4, human liver microsomes, 1 μM compound, 0.5 mg/ml HLM, 37° C.

Row | IC50 ([1]; Homo sapiens, PBMC) [nM] | IC50 ([2]; Homo sapiens, PBMC) [nM] | IC50 [3] [nM] | solubility at 24 h [4] [µM] | half-life at 1 μM [5, 6] [min] | half-life at 1 μM [5, 7] [min] | IC50 [1] [nM] | IC50 [2] [nM] | SMILES
1 | < 50 | < 50 | < 50 | 3 to 9.99 (≈ 1.43 to 4.75 µg/mL) | 10 to 40 |  |  |  | CCOC(=O)c1c(-c2c(F)cccc2Cl)noc1-c1cnn(CC(O)CC)c1C(F)(F)F (racemic) [Example 14, ethyl 3-(2-chloro-6-fluorophenyl)-5-[1-(2-hydroxybutyl)-5-(trifluoromethyl)-1H-pyrazol-4-yl]-1,2-oxazole-4-carboxylate]
2 | < 50 | < 50 | < 50 | 3 to 9.99 (≈ 1.55 to 5.15 µg/mL) | 2 to 9.99 |  |  |  | CCOC(=O)c1c(-c2c(F)cccc2Cl)noc1-c1cnn(CC(O)C(F)(F)F)c1C(F)(F)F (racemic) [Example 15, ethyl 3-(2-chloro-6-fluorophenyl)-5-[1-(3,3,3-trifluoro-2-hydroxypropyl)-5-(trifluoromethyl)-1H-pyrazol-4-yl]-1,2-oxazole-4-carboxylate]
3 | < 50 | < 50 | < 50 | < 1 | 40 to 100 |  |  |  | [2H]C(C)(O)Cn1ncc(-c2onc(-c3c(F)cccc3Cl)c2-c2nccs2)c1C(F)(F)F (racemic) [Example 31, 1-{4-[3-(2-chloro-6-fluorophenyl)-4-(1,3-thiazol-2-yl)-1,2-oxazol-5-yl]-5-(trifluoromethyl)-1H-pyrazol-1-yl}(2-^2H)propan-2-ol]
4 | < 50 | < 50 | < 50 | > 10 | 40 to 100 |  |  |  | [2H]C(C)(O)Cn1ncc(-c2onc(-c3c(F)cccc3Cl)c2C(=O)OCC)c1C(F)(F)F (racemic) [Example 32, ethyl 3-(2-chloro-6-fluorophenyl)-5-{1-[2-hydroxy(2-^2H)propyl]-5-(trifluoromethyl)-1H-pyrazol-4-yl}-1,2-oxazole-4-carboxylate]
5 | < 50 | < 50 | < 50 | > 10 | > 100 |  |  |  | [2H]C(C)(O)Cn1ncc(-c2onc(-c3c(F)cccc3Cl)c2C(=O)OC)c1C(F)(F)F (racemic) [Example 33, methyl 3-(2-chloro-6-fluorophenyl)-5-{1-[2-hydroxy(2-^2H)propyl]-5-(trifluoromethyl)-1H-pyrazol-4-yl}-1,2-oxazole-4-carboxylate]
6 | 50 to 500 | 50 to 500 | 50 to 500 | > 10 |  | > 100 |  |  | [2H]C(C)(O)Cn1ncc(-c2onc(-c3c(F)cccc3Cl)c2COC)c1C(F)(F)F (racemic) [Example 95, 1-{4-[3-(2-chloro-6-fluorophenyl)-4-(methoxymethyl)-1,2-oxazol-5-yl]-5-(trifluoromethyl)-1H-pyrazol-1-yl}(2-^2H)propan-2-ol]
7 | 50 to 500 | 50 to 500 | < 50 | > 10 | > 100 |  |  |  | CC(C)(O)Cn1ncc(-c2onc(-c3c(F)cccc3Cl)c2-c2nccs2)c1C(F)(F)F [Example 1, 1-(4-(3-(2-chloro-6-fluorophenyl)-4-(thiazol-2-yl)isoxazol-5-yl)-5-(trifluoromethyl)-1H-pyrazol-1-yl)-2-methylpropan-2-ol]
8 | < 50 | 50 to 500 | < 50 | 3 to 9.99 (≈ 1.45 to 4.84 µg/mL) | 10 to 40 |  |  |  | OC1(Cn2ncc(-c3onc(-c4c(F)cccc4Cl)c3-c3nccs3)c2C(F)(F)F)CC1 [Example 2, 1-((4-(3-(2-chloro-6-fluorophenyl)-4-(thiazol-2-yl)isoxazol-5-yl)-5-(trifluoromethyl)-1H-pyrazol-1-yl)methyl)cyclopropanol]
9 | < 50 | 50 to 500 | < 50 | 3 to 9.99 (≈ 1.43 to 4.75 µg/mL) | > 100 |  |  |  | CCOC(=O)c1c(-c2c(F)cccc2Cl)noc1-c1cnn(CC(C)(C)O)c1C(F)(F)F [Example 8, ethyl 3-(2-chloro-6-fluorophenyl)-5-(1-(2-hydroxy-2-methylpropyl)-5-(trifluoromethyl)-1H-pyrazol-4-yl)isoxazole-4-carboxylate]
10 | < 50 | < 50 | < 50 | 3 to 9.99 (≈ 1.47 to 4.89 µg/mL) | 40 to 100 |  |  |  | CCOC(=O)c1c(-c2c(F)cccc2Cl)noc1-c1cnn(CCC(C)(C)O)c1C(F)(F)F [Example 9, ethyl 3-(2-chloro-6-fluorophenyl)-5-[1-(3-hydroxy-3-methylbutyl)-5-(trifluoromethyl)-1H-pyrazol-4-yl]-1,2-oxazole-4-carboxylate]
11 | < 50 | < 50 | < 50 | 3 to 9.99 (≈ 1.46 to 4.87 µg/mL) | > 100 |  |  |  | CCOC(=O)c1c(-c2c(F)cccc2Cl)noc1-c1cnn([C@H]2C[C@@](C)(O)C2)c1C(F)(F)F [Example 10, ethyl 3-(2-chloro-6-fluorophenyl)-5-[1-(3-hydroxy-3-methylcyclobutyl)-5-(trifluoromethyl)-1H-pyrazol-4-yl]-1,2-oxazole-4-carboxylate]
12 |  |  |  | 3 to 9.99 (≈ 1.5 to 4.99 µg/mL) | 40 to 100 |  | 50 to 500 | < 50 | C[C@]1(O)C[C@H](n2ncc(-c3onc(-c4c(F)cccc4Cl)c3C(=O)OC3CC3)c2C(F)(F)F)C1 [Example 51, cyclopropyl 3-(2-chloro-6-fluorophenyl)-5-{1-[3-hydroxy-3-methylcyclobutyl]-5-(trifluoromethyl)-1H-pyrazol-4-yl}-1,2-oxazole-4-carboxylate]
13 | 500 to 5000 | 500 to 5000 | 500 to 5000 | > 10 |  |  |  |  | COCc1c(-c2c(F)cccc2Cl)noc1-c1cnn(CC(C)(C)O)c1C(F)(F)F [Example 65, 1-(4-(3-(2-chloro-6-fluorophenyl)-4-(methoxymethyl)isoxazol-5-yl)-5-(trifluoromethyl)-1H-pyrazol-1-yl)-2-methylpropan-2-ol]
14 | 50 to 500 | 50 to 500 | < 50 | > 10 |  |  |  |  | COCc1c(-c2c(F)cccc2Cl)noc1-c1cnn(C[C@@H](C)O)c1C(F)(F)F [Example 66, (2R)-1-(4-(3-(2-chloro-6-fluorophenyl)-4-(methoxymethyl)isoxazol-5-yl)-5-(trifluoromethyl)-1H-pyrazol-1-yl)propan-2-ol]
15 | 500 to 5000 | 500 to 5000 | 50 to 500 | > 10 |  |  |  |  | CCN(CC)CCOc1cccc(-c2noc(-c3cnn(CCC(C)(C)O)c3C)c2-c2ncccn2)c1Cl [Example 144, 4-[4-(3-{2-chloro-3-[2-(diethylamino)ethoxy]phenyl}-4-(pyrimidin-2-yl)-1,2-oxazol-5-yl)-5-methyl-1H-pyrazol-1-yl]-2-methylbutan-2-ol]
16 | 50 to 500 | 50 to 500 | 50 to 500 |  |  | 2 to 9.99 |  |  | COCc1c(-c2cccc(OCCN3CCOCC3)c2Cl)noc1-c1cnn([C@H]2C[C@](C)(O)C2)c1C(F)(F)F [Example 152, 3-[4-(3-{2-chloro-3-[2-(morpholin-4-yl)ethoxy]phenyl}-4-(methoxymethyl)-1,2-oxazol-5-yl)-5-(trifluoromethyl)-1H-pyrazol-1-yl]-1-methylcyclobutan-1-ol]
17 | ≥ 5000 | 500 to 5000 | 500 to 5000 |  |  | > 100 |  |  | COCc1c(-c2cccc(OCCN(C)C)c2Cl)noc1-c1cnn([C@H]2C[C@](C)(O)C2)c1C(F)(F)F [Example 153, 3-[4-(3-{2-chloro-3-[2-(dimethylamino)ethoxy]phenyl}-4-(methoxymethyl)-1,2-oxazol-5-yl)-5-(trifluoromethyl)-1H-pyrazol-1-yl]-1-methylcyclobutan-1-ol]
